Experimental data from patent US6894038B2, “Use of biogenic estriol diester prodrugs for the treatment of autoimmune diseases” (Schering Aktiengesellschaft, priority 2002, dated 2005).

Key:
Lewis rat EAE model = test: Lewis rat acute EAE model, clinical score; type: in vivo; conditions: female Lewis rats, 1000 ug/rat s.c. on day 1 and day 15; chronic stage of disease; ANOVA vs vehicle p≦0.028; FIG. 1
[1] = test system: CD4+ lymphocytes of MS patients; conditions: concentrations at a similar level as in pregnancy; Correale et al. 1998; cited from earlier work
[2] = administered orally; cited from earlier work
[3] = oral, 12 mg/day; Lindsay et al. 1979; cited from earlier work
[4] = Heithecker et al., 1991; cited from earlier work
[5] = test system: experimental autoimmune encephalomyelitis (EAE); conditions: levels equal to those found in pregnancy; Kim et al. 1999, Jansson et al. 1994; cited from earlier work

Compound | clinical score (EAE) (Lewis rat EAE model) | secretion of anti-inflammatory cytokine IL-10 [1] | bioavailability [2] | osteoprotective effects [3] | half-life [4] [h] | amelioration of disease (EAE) [5]
CCCCCC(=O)Oc1ccc2c(c1)CC[C@@H]1[C@@H]2CC[C@@]2(C)[C@H]1C[C@@H](O)[C@@H]2OC(=O)CCCCC [3,17β-di-n-hexanoyloxy-1,3,5(10)-estratriene-16α-ol] | efficacious in lowering the clinical score |  |  |  |  | 
C[C@]12CC[C@@H]3c4ccc(O)cc4CC[C@H]3[C@@H]1C[C@@H](O)[C@@H]2O [estriol] |  | stimulated | low | not able to show the osteoprotective effects | 1.5 to 5.3 | capable of ameliorating disease
